{"source": "ChEMBL document CHEMBL3399965", "about": "“Application of cultured human mast cells (CHMC) for the design and structure-activity relationship of IgE-mediated mast cell activation inhibitors” (Bioorg Med Chem Lett, 2015)", "key": {"[1]": {"target": "T1, Tyrosine-protein kinase SYK (Homo sapiens, UniProt P43405)", "experiment": "Inhibition of SYK in human mast cell cultures assessed as reduction in IgE-induced FCepsilonR1 mediated degranulation by tryptase release assay"}, "[2]": {"target": "T1, Tyrosine-protein kinase SYK", "experiment": "Inhibition of SYK in human mast cell cultures assessed as reduction in ionomycin-induced calcium mobilization mediated degranulation by tryptase release assay"}}, "note": "Calls of active or inactive are those of the source. The rule behind the calls is not given here.", "data": [{"compound": "Oc1cccc(Nc2ncc(-c3ccccc3)c(Nc3cccc(O)c3)n2)c1", "values": [{"measurement": "EC50", "setting": "[1]", "result": 2.9, "unit": "µM"}, {"measurement": "inhibition", "setting": "[2]", "result": "inactive"}]}, {"compound": "OCc1cccc(Nc2ncc(F)c(Nc3cccc(CO)c3)n2)c1", "values": [{"measurement": "EC50", "setting": "[1]", "result": 2.8, "unit": "µM"}, {"measurement": "inhibition", "setting": "[2]", "result": "inactive"}]}, {"compound": "CCOc1ccc(Nc2ncc(C)c(Nc3ccc(OCC)cc3)n2)cc1", "values": [{"measurement": "inhibition", "setting": "[1]", "result": "inactive"}, {"measurement": "inhibition", "setting": "[2]", "result": "inactive"}]}, {"compound": "CCOc1ccc(Nc2nc(Nc3cccc(OCC(=O)NC)c3)ncc2F)cc1", "values": [{"measurement": "EC50", "setting": "[1]", "result": 1.1, "unit": "µM"}, {"measurement": "inhibition", "setting": "[2]", "result": "inactive"}]}, {"compound": "O=C(O)COc1ccc(Nc2ncc(F)c(Nc3ccc(OCC(=O)O)cc3)n2)cc1", "values": [{"measurement": "inhibition", "setting": "[1]", "result": "inactive"}, {"measurement": "inhibition", "setting": "[2]", "result": "inactive"}]}, {"compound": "Cc1cnc(Nc2cccc(O)c2)nc1Nc1cccc(O)c1", "values": [{"measurement": "EC50", "setting": "[1]", "result": 0.9, "unit": "µM"}, {"measurement": "inhibition", "setting": "[2]", "result": "inactive"}]}, {"compound": "Fc1cnc(Nc2ccc(N3CCOCC3)cc2)nc1Nc1ccc(N2CCOCC2)cc1", "values": [{"measurement": "EC50", "setting": "[1]", "result": 4.14, "unit": "µM"}, {"measurement": "inhibition", "setting": "[2]", "result": "inactive"}]}, {"compound": "Fc1cnc(Nc2cccc(Cl)c2)nc1Nc1cccc(Cl)c1", "values": [{"measurement": "EC50", "setting": "[1]", "result": 5.81, "unit": "µM"}, {"measurement": "inhibition", "setting": "[2]", "result": "inactive"}]}, {"compound": "Oc1ccc(Nc2ncc(F)c(Nc3ccc(O)cc3)n2)cc1", "values": [{"measurement": "EC50", "setting": "[1]", "result": 3.4, "unit": "µM"}, {"measurement": "inhibition", "setting": "[2]", "result": "inactive"}]}, {"compound": "NC(=O)COc1ccc(Nc2nc(Nc3cccc(O)c3)ncc2F)cc1", "values": [{"measurement": "EC50", "setting": "[1]", "result": 1.55, "unit": "µM"}, {"measurement": "EC50", "setting": "[2]", "result": 10, "unit": "µM"}]}, {"compound": "Cn1nnnc1COc1ccc(Nc2ncc(F)c(Nc3ccc(OCc4nnnn4C)cc3)n2)cc1", "values": [{"measurement": "EC50", "setting": "[1]", "result": 0.76, "unit": "µM"}, {"measurement": "inhibition", "setting": "[2]", "result": "inactive"}]}, {"compound": "COC(=O)COc1ccc(Nc2nc(Nc3ccc(OCC(N)=O)cc3)ncc2F)cc1", "values": [{"measurement": "EC50", "setting": "[1]", "result": 0.94, "unit": "µM"}, {"measurement": "EC50", "setting": "[2]", "result": 10, "unit": "µM"}]}, {"compound": "CCOc1ccc(Nc2ncc(F)c(Nc3ccc(OCC)cc3)n2)cc1", "values": [{"measurement": "inhibition", "setting": "[2]", "result": "inactive"}]}, {"compound": "NC(=O)COc1ccc(Nc2ncc(F)c(Nc3cccc(O)c3)n2)cc1", "values": [{"measurement": "EC50", "setting": "[1]", "result": 0.53, "unit": "µM"}, {"measurement": "EC50", "setting": "[2]", "result": 10, "unit": "µM"}]}, {"compound": "COC(=O)COc1ccc(Nc2ncc(F)c(Nc3ccc(OCC(N)=O)cc3)n2)cc1", "values": [{"measurement": "EC50", "setting": "[1]", "result": 0.43, "unit": "µM"}, {"measurement": "EC50", "setting": "[2]", "result": 2.48, "unit": "µM"}]}, {"compound": "CC(C)(CO)c1ccc(Nc2nc(Nc3cccc(OCCO)c3)ncc2F)cc1", "values": [{"measurement": "EC50", "setting": "[1]", "result": 0.28, "unit": "µM"}, {"measurement": "inhibition", "setting": "[2]", "result": "inactive"}]}, {"compound": "CCOc1ccc(Nc2ccnc(Nc3ccc(OCC)cc3)n2)cc1", "values": [{"measurement": "EC50", "setting": "[1]", "result": 3.38, "unit": "µM"}, {"measurement": "inhibition", "setting": "[2]", "result": "inactive"}]}, {"compound": "CCOc1cccc(Nc2ncc(F)c(Nc3cccc(OCC)c3)n2)c1", "values": [{"measurement": "EC50", "setting": "[1]", "result": 3.1, "unit": "µM"}, {"measurement": "inhibition", "setting": "[2]", "result": "inactive"}]}, {"compound": "CNC(=O)COc1cccc(Nc2ncc(F)c(Nc3ccc(C(C)(C)C)cc3)n2)c1", "values": [{"measurement": "EC50", "setting": "[1]", "result": 0.43, "unit": "µM"}, {"measurement": "EC50", "setting": "[2]", "result": 10, "unit": "µM"}]}, {"compound": "OCCOc1cccc(Nc2nc(Nc3cccc(O)c3)ncc2F)c1", "values": [{"measurement": "EC50", "setting": "[1]", "result": 0.67, "unit": "µM"}, {"measurement": "inhibition", "setting": "[2]", "result": "inactive"}]}, {"compound": "Oc1cccc(Nc2ncc(C(F)(F)F)c(Nc3cccc(O)c3)n2)c1", "values": [{"measurement": "EC50", "setting": "[1]", "result": 0.27, "unit": "µM"}, {"measurement": "inhibition", "setting": "[2]", "result": "inactive"}]}, {"compound": "N#Cc1ccc(Nc2ncc(F)c(Nc3ccc(C#N)cc3)n2)cc1", "values": [{"measurement": "EC50", "setting": "[1]", "result": 9.83, "unit": "µM"}, {"measurement": "inhibition", "setting": "[2]", "result": "inactive"}]}, {"compound": "Oc1cccc(Nc2ncc(F)c(Nc3cccc(O)c3)n2)c1", "values": [{"measurement": "inhibition", "setting": "[2]", "result": "inactive"}]}, {"compound": "Fc1cnc(Nc2cccc(OC(F)(F)F)c2)nc1Nc1cccc(OC(F)(F)F)c1", "values": [{"measurement": "EC50", "setting": "[1]", "result": 5.08, "unit": "µM"}, {"measurement": "inhibition", "setting": "[2]", "result": "inactive"}]}, {"compound": "Nc1ccc(Nc2ncc(F)c(Nc3ccc(N)cc3)n2)cc1", "values": [{"measurement": "EC50", "setting": "[1]", "result": 4.25, "unit": "µM"}, {"measurement": "inhibition", "setting": "[2]", "result": "inactive"}]}, {"compound": "Fc1cnc(Nc2ccc(OCc3nnn[nH]3)cc2)nc1Nc1ccc(OCc2nnn[nH]2)cc1", "values": [{"measurement": "inhibition", "setting": "[1]", "result": "inactive"}, {"measurement": "inhibition", "setting": "[2]", "result": "inactive"}]}, {"compound": "N#Cc1cccc(Nc2ncc(F)c(Nc3cccc(C#N)c3)n2)c1", "values": [{"measurement": "EC50", "setting": "[1]", "result": 0.95, "unit": "µM"}, {"measurement": "inhibition", "setting": "[2]", "result": "inactive"}]}, {"compound": "CC(C)Oc1ccc(Nc2ncc(F)c(Nc3ccc(OC(C)C)cc3)n2)cc1", "values": [{"measurement": "EC50", "setting": "[1]", "result": 2.2, "unit": "µM"}, {"measurement": "inhibition", "setting": "[2]", "result": "inactive"}]}, {"compound": "CCOC(=O)CNc1cccc(Nc2ncc(F)c(Nc3cccc(O)c3)n2)c1", "values": [{"measurement": "EC50", "setting": "[1]", "result": 0.33, "unit": "µM"}, {"measurement": "inhibition", "setting": "[2]", "result": "inactive"}]}, {"compound": "Oc1cccc(Nc2cc(-c3ccccc3)nc(Nc3cccc(O)c3)n2)c1", "values": [{"measurement": "EC50", "setting": "[1]", "result": 5.8, "unit": "µM"}, {"measurement": "inhibition", "setting": "[2]", "result": "inactive"}]}, {"compound": "Oc1cccc(Nc2ncc(Br)c(Nc3cccc(O)c3)n2)c1", "values": [{"measurement": "EC50", "setting": "[1]", "result": 0.23, "unit": "µM"}, {"measurement": "inhibition", "setting": "[2]", "result": "inactive"}]}, {"compound": "CNC(=O)CNc1cccc(Nc2ncc(F)c(Nc3cccc(O)c3)n2)c1", "values": [{"measurement": "inhibition", "setting": "[2]", "result": "inactive"}]}, {"compound": "COc1cccc(Nc2ncc(F)c(Nc3cccc(OC)c3)n2)c1", "values": [{"measurement": "EC50", "setting": "[1]", "result": 1.73, "unit": "µM"}, {"measurement": "inhibition", "setting": "[2]", "result": "inactive"}]}, {"compound": "CNC(=O)COc1cccc(Nc2ncc(F)c(Nc3ccc(N4CCOCC4)cc3)n2)c1", "values": [{"measurement": "EC50", "setting": "[1]", "result": 1.29, "unit": "µM"}, {"measurement": "inhibition", "setting": "[2]", "result": "inactive"}]}, {"compound": "N#CCOc1ccc(Nc2ncc(F)c(Nc3cccc(O)c3)n2)cc1", "values": [{"measurement": "EC50", "setting": "[2]", "result": 10, "unit": "µM"}]}, {"compound": "CNC(=O)COc1cccc(Nc2ncc(F)c(Nc3ccc(C(F)(F)F)cc3)n2)c1", "values": [{"measurement": "EC50", "setting": "[1]", "result": 0.21, "unit": "µM"}, {"measurement": "inhibition", "setting": "[2]", "result": "inactive"}]}, {"compound": "OCCOc1cccc(Nc2ncc(F)c(Nc3cccc(OCCO)c3)n2)c1", "values": [{"measurement": "EC50", "setting": "[1]", "result": 0.93, "unit": "µM"}, {"measurement": "inhibition", "setting": "[2]", "result": "inactive"}]}, {"compound": "N#CCOc1ccc(Nc2ncc(F)c(Nc3ccc(OCC#N)cc3)n2)cc1", "values": [{"measurement": "EC50", "setting": "[1]", "result": 0.37, "unit": "µM"}, {"measurement": "inhibition", "setting": "[2]", "result": "inactive"}]}, {"compound": "NC(=O)COc1ccc(Nc2ncc(F)c(Nc3ccc(OCC(N)=O)cc3)n2)cc1", "values": [{"measurement": "inhibition", "setting": "[1]", "result": "inactive"}, {"measurement": "inhibition", "setting": "[2]", "result": "inactive"}]}, {"compound": "N#Cc1cnc(Nc2cccc(O)c2)nc1Nc1cccc(O)c1", "values": [{"measurement": "EC50", "setting": "[1]", "result": 0.44, "unit": "µM"}, {"measurement": "inhibition", "setting": "[2]", "result": "inactive"}]}, {"compound": "COc1ccc(Nc2ncc(F)c(Nc3ccc(OC)cc3)n2)cc1", "values": [{"measurement": "EC50", "setting": "[1]", "result": 1.43, "unit": "µM"}, {"measurement": "inhibition", "setting": "[2]", "result": "inactive"}]}, {"compound": "COC(=O)COc1ccc(Nc2ncc(F)c(Nc3ccc(OCC(=O)OC)cc3)n2)cc1", "values": [{"measurement": "EC50", "setting": "[1]", "result": 0.38, "unit": "µM"}, {"measurement": "EC50", "setting": "[2]", "result": 1.7, "unit": "µM"}]}, {"compound": "CCOc1ccc(Nc2cc(Cl)nc(Nc3ccc(OCC)cc3)n2)cc1", "values": [{"measurement": "inhibition", "setting": "[1]", "result": "inactive"}, {"measurement": "inhibition", "setting": "[2]", "result": "inactive"}]}, {"compound": "Oc1cccc(Nc2ccnc(Nc3cccc(O)c3)n2)c1", "values": [{"measurement": "EC50", "setting": "[1]", "result": 0.5, "unit": "µM"}, {"measurement": "inhibition", "setting": "[2]", "result": "inactive"}]}, {"compound": "Fc1cnc(Nc2ccc(C(F)(F)F)cc2)nc1Nc1ccc(C(F)(F)F)cc1", "values": [{"measurement": "inhibition", "setting": "[1]", "result": "inactive"}, {"measurement": "inhibition", "setting": "[2]", "result": "inactive"}]}, {"compound": "CNC(=O)COc1cccc(Nc2ncc(F)c(Nc3ccc(OC(F)(F)F)cc3)n2)c1", "values": [{"measurement": "EC50", "setting": "[1]", "result": 0.4, "unit": "µM"}, {"measurement": "inhibition", "setting": "[2]", "result": "inactive"}]}, {"compound": "COCCOc1cccc(Nc2ncc(F)c(Nc3cccc(OCCOC)c3)n2)c1", "values": [{"measurement": "EC50", "setting": "[1]", "result": 4.15, "unit": "µM"}, {"measurement": "inhibition", "setting": "[2]", "result": "inactive"}]}]}
